According to patent US9034819B2, “Method of lowering cholesterol and triglycerides by administering exendins” (Amylin Pharmaceuticals, LLC, priority 2008, dated 2015):

Tests used:
Format in all cases: in vivo, human
[1] = test system: total cholesterol, LDL-cholesterol, HDL-cholesterol; assay: Total, LDL- and HDL-cholesterol, 30 week study in patients with Type 2 diabetes; settings: SC
Procedure: (§1) The pharmacokinetics of a long-acting release formulation of exenatide was evaluated in a study in patients with Type 2 diabetes. The study population consisted of individuals with type 2 diabetes treated with a stable regimen of oral diabetes medications or managed with diet modification and exercise. […] The 30 week study compared a 10 μg formulation of exenatide administered twice daily (BTD) by subcutaneous (SC) injection and a 2 mg formulation of exenatide administered once weekly by subcutaneous (SC) injection. The study was also conducted, inter alia, to examine the effects of such administration on the individual's total cholesterol, LDL-cholesterol, HDL-cholesterol, triglyceride levels, hemoglobin A1C, fasting postprandial blood glucose, and weight.
During the 3-day lead-in period, patients self-administered exenatide 5 μg SC, BID, within 15 minutes prior to meals in the morning and evening. The exenatide 5 μg SC, BID used in the 3-day lead-in period was a clear, colorless, sterile preserved solution for SC injection containing exenatide (exendin-4) in sodium acetate buffer, pH 4.5, 4.3% mannitol as an iso-osmolality modifier and 0.22% metacresol as a preservative. The strength of exenatide injection was 0.25 mg/mL of exendin-4.
During the 30-week treatment period, patients received once weekly subcutaneous injections of a 2.0 mg dose pharmaceutical formulation containing 5% exenatide or patient received twice daily subcutaneous injections of exenatide at 10 μg per dose.
(§2) Exenatide once weekly is a sustained-release formulation of exenatide (exendin-4) designed to provide exenatide release over a period ranging from 7 to 91 days. […] The vial containing the white to off-white dry powder (2.8 mg of exenatide once weekly) was stored frozen in a freezer with a recorded temperature at ≦−20±5° C. at the study site.
(§3) Patients were monitored about every four weeks for body weight, vital signs (including blood pressure, heart rate, respiratory rate, and temperature), urinalysis, and adverse events. […]

fasting triglycerides = assay: Fasting triglycerides, 30 week study in patients with Type 2 diabetes; settings: decrease from baseline to week 30; SC; once weekly 2 mg or twice daily 10 μg
Procedure: as §1, with “weight. […]” for “weight.”
as §2, §3

hemoglobin A1C = assay: Hemoglobin A1C by HPLC, 30 week study in patients with Type 2 diabetes; settings: decrease from baseline to week 30; SC; once weekly 2 mg or twice daily 10 μg
Procedure: as §1, with “weight. […]” for “weight.”
as §2
Plasma exenatide was quantified by a validated Enzyme-Linked Immunosorbent Assay (ELISA) at Millipore (Billerica, Mass.). […] Glycosylated hemoglobin was quantitated by Quintiles Laboratories (Smyrna, Ga.) using high-performance liquid chromatography. […]

[2] = Body weight, 30 week study in patients with Type 2 diabetes; settings: weight loss from baseline to week 30, SC, once weekly 2 mg or twice daily 10 μg
Procedure: as §1, with “weight. […]” for “weight.”
as §2, §3

blood glucose = assay: Fasting postprandial blood glucose, 30 week study in patients with Type 2 diabetes; settings: decrease from baseline to week 30; SC; once weekly 2 mg or twice daily 10 μg
Procedure: as §1
During the 3-day lead-in period, patients self-administered exenatide 5 μg SC, BID, within 15 minutes prior to meals in the morning and evening. […]
as §2

[3] = decrease from baseline to week 30, once weekly 2 mg or twice daily 10 μg

exenatide BID: 10 μg formulation of exenatide (exendin-4) administered twice daily by subcutaneous injection
HDL-cholesterol decreased by an average of [1, 3]: 1.3 mg/dL | total cholesterol decreased by an average of [1, 3]: 3.8 mg/dL | LDL-cholesterol increased by an average of ([1]; increase from baseline to week 30, twice daily 10 μg): 1.2 mg/dL | fasting triglycerides decreased by an average of (fasting triglycerides): 22 mg/dL | HbA1C decreased by an average of (hemoglobin A1C): 1.5% | body weight decreased by an average of (weight loss) [2]: about 3.6 kg | body weight decreased by an average of (weight loss) ([2]; listed as exenatide twice daily): 3.6 kg | fasting postprandial blood glucose decreased by an average of (blood glucose): 25 mg/dL
